From patent US8461151B2, “Aryl-/heteroaryl-cyclohexenyl-tetraazabenzo[e]azulenes” (Hoffmann-La Roche Inc., priority 2010, dated 2013)
Where a name gives a salt, the structure may show the parent alone.

What follows are compounds tested against T1, human V1a receptor (Homo sapiens, UniProt P37288) (assay: human V1a receptor binding studies (3H-Vasopressin SPA, membranes of transfected HEK293 cells)). Settings: 3H-Vasopressin displacement, HEK293 cell membranes, SPA beads, 1 h at room temperature, Ki by Cheng-Prussoff from IC50, read-out: pKi (hV1a) (converted).
T1 construct: expressed in transfected cells; host or cells: HEK293 cells, transiently transfected; membranes
Method: The human V1a receptor was cloned by RT-PCR from total human liver RNA. The coding sequence was subcloned in an expression vector after sequencing to confirm the identity of the amplified sequence. […] Cell membranes were prepared from HEK293-cells transiently transfected with the expression vector and grown in 20 liter fermenters with the following protocol.
50 g of cells are resuspended in 30 ml freshly prepared ice cold Lysis buffer (50 mM HEPES, 1 mM EDTA, 10 mM magnesium dichloride adjusted to pH=7.4+ complete cocktail of protease inhibitor (Roche Diagnostics)). Homogenized with Polytron for 1 min and sonicated on ice for 2×2 minutes at 80% intensity (Vibracell sonicator). The preparation is centrifuged 20 min at 500 g at 4° C., the pellet is discarded and the supernatant centrifuged 1 hour at 43,000 g at 4° C. (19,000 rpm). The pellet is resuspended in 12.5 ml Lysis buffer+12.5 ml sucrose 20% and homogenized using a Polytron for 1-2 min. The protein concentration is determined by the Bradford method and aliquots are stored at −80° C. until use. For binding studies 60 mg Yttrium silicate SPA beads (Amersham®) are mixed with an aliquot of membrane in binding buffer (50 mM Tris, 120 mM sodium chloride, 5 mM potassium chloride, 2 mM calcium dichloride, 10 mM magnesium dichloride) for 15 minutes with mixing. 50 μl of bead/membrane mixture is then added to each well of a 96 well plate, followed by 50 μl of 4 nM 3H-Vasopressin (American Radiolabeled Chemicals). For total binding measurement 100 μl of binding buffer are added to the respective wells, for non-specific binding 100 μl of 8.4 mM cold vasopressin and for compound testing 100 μl of a serial dilution of each compound in 2% dimethyl sulfoxide. The plate is incubated 1 h at room temperature, centrifuged 1 min at 1000 g and counted on a Packard Top-Count. Non-specific binding counts are subtracted from each well and data is normalized to the maximum specific binding set at 100%. To calculate an IC50 the curve is fitted using a non-linear regression model (XLfit) and the Ki is calculated using the Cheng-Prussoff equation.

T1 sequence (P37288 whole entry): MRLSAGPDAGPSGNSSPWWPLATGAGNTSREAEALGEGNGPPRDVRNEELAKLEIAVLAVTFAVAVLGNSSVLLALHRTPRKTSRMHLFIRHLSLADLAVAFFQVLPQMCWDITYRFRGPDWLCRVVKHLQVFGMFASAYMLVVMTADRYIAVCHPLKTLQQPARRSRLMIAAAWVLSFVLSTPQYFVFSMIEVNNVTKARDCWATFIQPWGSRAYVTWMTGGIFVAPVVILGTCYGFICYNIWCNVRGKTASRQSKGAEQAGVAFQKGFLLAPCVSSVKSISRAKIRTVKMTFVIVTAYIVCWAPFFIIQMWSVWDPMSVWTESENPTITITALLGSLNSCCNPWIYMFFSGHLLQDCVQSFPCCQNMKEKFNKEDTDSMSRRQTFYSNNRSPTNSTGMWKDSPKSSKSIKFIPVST

Structure (SMILES)	Ki [nM]
CC(C)(C)OC(=O)N1Cc2cc(Cl)ccc2-n2c(nnc2C2CC=C(c3cccc(C#N)c3)CC2)C1 (racemic) [Example 20, (RS)-8-Chloro-1-[4-(3-cyano-phenyl)-cyclohex-3-enyl]-4H,6H-2,3,5,10b-tetraaza-benzo[e]azulene-5-carboxylic acid tert-butyl ester]	46.8
Clc1ccc2c(c1)CNCc1nnc(C3CC=C(c4cccc5ccccc45)CC3)n1-2 (racemic) [Example 15, (RS)-8-Chloro-1-(4-naphthalen-1-yl-cyclohex-3-enyl)-5,6-dihydro-4H-2,3,5,10b-tetraaza-benzo[e]azulene hydrochloride]	112
Fc1cccnc1C1=CCC(c2nnc3n2-c2ccc(Cl)cc2CNC3)CC1 (single isomer, unassigned; (-)) [Example 30, (−)-8-Chloro-1-[-4-(3-fluoro-pyridin-2-yl)-cyclohex-3-enyl]-5,6-dihydro-4H-2,3,5,10b-tetraaza-benzo[e]azulene]	42.7
Clc1ccc2c(c1)CNCc1nnc(C3CC=C(c4ccccc4)CC3)n1-2 (racemic) [Example 1, (RS)-8-Chloro-1-(4-phenyl-cyclohex-3-enyl)-5,6-dihydro-4H-2,3,5,10b-tetraaza-benzo[e]azulene hydrochloride]	10
Fc1ccc(C2=CCC(c3nnc4n3-c3ccc(Cl)cc3CNC4)CC2)cc1 (racemic) [Example 6, (RS)-8-Chloro-1-[4-(4-fluoro-phenyl)-cyclohex-3-enyl]-5,6-dihydro-4H-2,3,5,10b-tetraaza-benzo[e]azulene hydrochloride]	29.5
CC(C)(C)OC(=O)N1Cc2cc(Cl)ccc2-n2c(nnc2C2CC=C(c3ncccc3F)CC2)C1 (single isomer, unassigned; (-)) [Example 28, (−)-8-Chloro-1-[-4-(3-fluoro-pyridin-2-yl)-cyclohex-3-enyl]-4H,6H-2,3,5,10b-tetraaza-benzo[e]azulene-5-carboxylic acid tert-butyl ester]	1.91
CN1Cc2cc(Cl)ccc2-n2c(nnc2C2CC=C(c3ccccn3)CC2)C1 (single isomer, unassigned; (+)) [Example 24, (+)-8-Chloro-5-methyl-1-(-4-pyridin-2-yl-cyclohex-3-enyl)-5,6-dihydro-4H-2,3,5,10b-tetraaza-benzo[e]azulene]	2.88
CN1Cc2cc(Cl)ccc2-n2c(nnc2C2CC=C(c3cccc4ccccc34)CC2)C1 (racemic) [Example 16, (RS)-8-Chloro-5-methyl-1-(4-naphthalen-1-yl-cyclohex-3-enyl)-5,6-dihydro-4H-2,3,5,10b-tetraaza-benzo[e]azulene]	19.1
CC(C)(C)OC(=O)N1Cc2cc(Cl)ccc2-n2c(nnc2C2CC=C(c3cc(F)ccn3)CC2)C1 (racemic) [Example 25, (RS)-8-Chloro-1-[4-(4-fluoro-pyridin-2-yl)-cyclohex-3-enyl]-4H,6H-2,3,5,10b-tetraaza-benzo[e]azulene-5-carboxylic acid tert-butyl ester]	4.68
CC(C)(C)OC(=O)N1Cc2cc(Cl)ccc2-n2c(nnc2C2CC=C(c3cccc(OC(F)(F)F)c3)CC2)C1 (racemic) [Example 8, (RS)-8-Chloro-1-[4-(3-trifluoromethoxy-phenyl)-cyclohex-3-enyl]-4H,6H-2,3,5,10b-tetraaza-benzo[e]azulene-5-carboxylic acid tert-butyl ester]	72.4
